3 molecules from US4748180A, “β-carboline-3-carboxylic acid derivatives, and their use as psychotropic and anti-epileptic agents” (Schering Aktiengesellschaft, priority 1984, dated 1988) can be followed below.

For assay [1], the target named is benzodiazepine receptors. Briefly: in vitro inhibition of 3H-flunitrazepam binding (displacement test, brain membrane suspension). The arrangement: unit not given here. Conditions: 3H-flunitrazepam 1.0 nM, 0° C., rat forebrain, pH 7.1.
The subject of assay [2] is benzodiazepine receptors. The assay is described as follows: in vivo inhibition of 3H-flunitrazepam binding (forebrain membranes of injected mice). Conditions: usually subcutaneously, 3H-flunitrazepam i.v. 15 minutes later, killed after a further 20 minutes. The protocol: The ED50 value represents the dose (mg/kg) of a test substance which causes the specific binding of flunitrazepam to benzodiazepine receptors in a living brain to be reduced to 50% of the control value. Such an in vivo test is carried out as follows:
Groups of mice are injected with the test substance of different doses and usually subcutaneously. 15 minutes later ^3 H-flunitrazepam is administered intravenously to the mice, and after a further 20 minutes, the mice are killed. Their forebrain membranes are removed and the radioactivity of these forebrain membranes is measured by scintillation counting. The ED50 value is determined from dose-response curves.

Molecules are shown by their SMILES.

Take `CCOCc1cccc2[nH]c3cnc(C(=O)OCC)c(COC)c3c12` [Example 1, 5-ethoxymethyl-4-methoxymethyl-β-carboline-3-carboxylic acid ethylester]: the “Inhibition of H^3flunitrazepam binding in vitro IC50” value (from here on “Inhibition … in vitro IC50”) in assay [1] was found to be 0.4. Also, in assay [2], the “Inhibition of H^3flunitrazepam binding in vivo ED50” value (shortened to “Inhibition … in vivo ED50”) stood at 2.4 mg/kg.

`CCOC(=O)c1ncc2[nH]c3cccc(OC4CCC4)c3c2c1COC`: in assay [1], the “Inhibition … in vitro IC50” value is 0.2. Besides, in assay [2], the “Inhibition … in vivo ED50” value turned out to be 0.5 mg/kg.

With `CCOC(=O)c1ncc2[nH]c3cccc(OC(C)C)c3c2c1COC`, the “Inhibition … in vitro IC50” value in assay [1] was found to be 0.6. In addition, the “Inhibition … in vivo ED50” value in assay [2] was found to be 1.4 mg/kg.
